Read-outs that look alike come from different tables or passages of the source.
Tests used:
[1] = Open-label randomized pharmacokinetic drug-drug interaction study: plasma PK of Compound A alone or with phenytoin; format: in vivo, human; settings: for Cmax / AUC / Tmax / AUC(0-t) / AUC(0-inf) / half-life: human, plasma; for Cmax / AUC / Tmax / half-life: 100 mg; for AUC(0-t): read-out: mean AUC0-t; for AUC(0-inf): read-out: mean AUC0-inf; for half-life: read-out: elimination half-life (converted)
Protocol: (§1) In this open-label, randomized study, subjects received the following treatments: • Two single oral doses of 100 mg (2×50 mg) Compound A adult immediate release tablet formulation, fasted state, administered on Day 1 and Day 12. • Repeat doses of phenytoin 100 mg TID for 10 days (from Day 3 until the morning of Day 12).
(§2) Subjects fasted overnight for a minimum of 10 hours prior to dosing on Day 1 and Day 12. An oral dose of the Compound A IR tablet treatment was administered in the morning with approximately 240 mL of water at ambient temperature, to 1 subject per 2 minute intervals. Fasting continued for at least 4 hours following administration. Water was provided as needed until 1 hour pre-dose. Water was allowed beginning 1 hour after the administration of the drug.
(§3) On Day 3 to Day 11, an oral dose of phenytoin was administered TID with approximately 240 mL of water at ambient temperature, starting at 07:30, 15:30, and 23:30 to 1 subject per 2 minute intervals. On Day 12, an oral dose of phenytoin was administered in the morning with approximately 240 mL of water at ambient temperature, starting at 07:30 (1 hour prior to Compound A dosing) to 1 subject per 2 minute intervals.
(§4) The direct measurements of this study were the plasma, whole blood, urine, and saliva concentrations of Compound A and plasma concentrations for phenytoin.
The magnitude of DDI was described using GMR (with/without phenytoin) and associated 90% CI of the Cmax, AUC0-t, and AUC0-inf for Compound A.

[2] = Urinary excretion and renal clearance of Compound A in the pharmacokinetic study; format: in vivo, human; settings: for mean amount excreted unchanged in urine / mean percentage of dose excreted unchanged in urine: over 48 hours following dosing
Protocol: as §1, §2, §3, §4

[3] = Safety: treatment-emergent adverse events (TEAEs) in the pharmacokinetic study; format: in vivo, human
Protocol: as §1
A total of 15 subjects (83%) reported 101 TEAEs over the course of the study. Three treatment periods were defined: Day 1 to Day 3 (following Compound A dosing on Day 1 and prior to start of phenytoin dosing on Day 3) corresponds to the Compound A treatment period, Day 3 to Day 12 (following phenytoin dosing on Day 3 and prior to Compound A dosing on Day 12) corresponds to the phenytoin treatment period, and Day 12 to the follow-up visit (following Compound A dosing on Day 12) corresponds to the Compound A in combination with phenytoin treatment period.

[4] = system: CYP3A4, CYP2D6, CYP2C9; settings: has been reported; cited from earlier work
[5] = with phenytoin 100 mg TID for 10 days (Day 12) vs Compound A alone
[6] = with vs without phenytoin comparison
[7] = Compound A 100 mg + phenytoin 100 mg TID
[8] = whole study (Compound A, phenytoin, combination)

Cc1cc(S(=O)(=O)Nc2cscn2)c(F)cc1N(C)[C@H]1CCN(Cc2ccccc2)C1 [Compound A, (S)-4-((1-benzylpyrrolidin-3-yl)(methyl)amino)-2-fluoro-5-methyl-N-(thiazol-4-yl)benzenesulfonamide]
effect of phenytoin 100 mg TID on Compound A total systemic exposure ([1]; 90% CI of GMR for AUC0-t and AUC0-inf within no effect boundaries 80.00-125.00%): did not affect | apparent clearance ([1]; Compound A alone): 5.4 L/h | apparent volume of distribution ([1]; Compound A alone): 89 L | apparent clearance ([1]; Compound A with phenytoin): 5.7 L/h | apparent volume of distribution ([1]; Compound A with phenytoin): 65 L | increase of peak plasma concentration (Cmax) ([1]; co-administered with phenytoin 100 mg TID x 10 days vs Compound A alone): approximately 22% | Cmax ([1]; oral, Compound A 100 mg alone, full sampling, read-out: mean Cmax): 3300 ng/mL | AUC ([1]; oral, Compound A 100 mg alone, truncated sampling): 19900 ng·h/mL | Cmax ([1]; oral, Compound A 100 mg alone, truncated sampling, read-out: Cmax): 3220 ng/mL | Tmax ([1]; oral, Compound A 100 mg alone, truncated sampling, read-out: Tmax): 1 h | Cmax ([1]; oral, Compound A 100 mg with phenytoin 100 mg TID x 10 days, full sampling, read-out: mean Cmax): 3720 ng/mL | AUC ([1]; oral, Compound A with phenytoin 100 mg TID x 10 days, truncated sampling): 18600 ng·h/mL | Cmax ([1]; oral, Compound A with phenytoin 100 mg TID x 10 days, truncated sampling, read-out: Cmax): 3680 ng/mL | Tmax ([1]; oral, Compound A with phenytoin 100 mg TID x 10 days, truncated sampling, read-out: Tmax): 1 h | AUC(0-t) ([1]; oral, Compound A 100 mg + phenytoin 100 mg TID x 10 days, full sampling): 17800 ng·h/mL | AUC(0-inf) ([1]; oral, Compound A 100 mg + phenytoin 100 mg TID x 10 days): 18000 ng·h/mL | AUC(0-t) ([1]; oral, Compound A 100 mg alone, full sampling): 19100 ng·h/mL | AUC(0-inf) ([1]; oral, Compound A 100 mg alone): 19800 ng·h/mL | Tmax ([1]; po, Compound A 100 mg single oral dose alone (Day 1), fasted, full sampling, read-out: time to peak plasma concentrations (Tmax)): ~1 h | Tmax ([1]; po, Compound A 100 mg single oral dose with phenytoin 100 mg TID for 10 days (Day 12), full sampling, read-out: time to peak plasma concentrations (Tmax)): ~1 h | half-life ([1]; po, Compound A alone): 10 h | half-life ([1]; po, Compound A with phenytoin): 8 h | difference in AUC0-inf [1, 5]: ~7% | difference in AUC0-t [1, 5]: approximately 4% | intra-subject CV % of AUC0-inf [1, 6]: 22% | intra-subject CV % of AUC0-t [1, 6]: 26% | intra-subject CV % of Cmax [1, 6]: 53% | AUC0-inf GMR ([1]; with/without phenytoin, 90% CI 81.75-105.23%): 92.75% | AUC0-t GMR ([1]; with/without phenytoin, 90% CI 82.54-111.67%): 96.01% | Cmax geometric mean ratio (GMR) ([1]; with/without phenytoin, 90% CI 90.94-162.38%): 121.52% | mean amount excreted unchanged in urine [2, 7]: 57186 ng | mean percentage of dose excreted unchanged in urine [2, 7]: 0.06% | mean amount excreted unchanged in urine ([2]; Compound A 100 mg alone): 71103 ng | mean percentage of dose excreted unchanged in urine ([2]; Compound A 100 mg alone): 0.07% | CL renal ([2]; human, urine, oral, both treatments: presence (Day 12) or absence (Day 1) of phenytoin): 0.05 to 0.0667 mL/min | CLr GMR ([2]; with/without phenytoin): 100.25% | incidence of subjects with TEAEs ([3]; Compound A alone on Day 1): 39% | incidence of subjects with TEAEs ([3]; Compound A in combination with phenytoin on Day 12): 65% | deaths or SAEs [3, 8]: No deaths or SAEs occurred | subjects reporting a severe TEAE [3, 8]: None | metabolizing CYP enzymes [4]: metabolized by CYP3A4, CYP2D6, and to a lesser extent CYP2C9

O=C1NC(=O)C(c2ccccc2)(c2ccccc2)N1 [phenytoin, reference compound]
incidence of subjects with TEAEs ([3]; phenytoin alone from Day 3 to Day 12): 71%
